Numbering of substitutions follows the chain as printed. In names and notes the source's numbering stands. Values belong to the molecule of their own block, whether it stands above or below them.
Legend:
TRPC5 [1] = target: T1, TRPC5 (Homo sapiens, UniProt Q9UL62, V455M/Q573T); experiment: Fura-2 intracellular calcium assay in transfected HEK […] cells; type: cell-based; conditions: read-out: AM237 EC50
T1 construct: TRPC5-SYFP2 Q573T
T1 sequence (Q9UL62 1-973 V455M/Q573T): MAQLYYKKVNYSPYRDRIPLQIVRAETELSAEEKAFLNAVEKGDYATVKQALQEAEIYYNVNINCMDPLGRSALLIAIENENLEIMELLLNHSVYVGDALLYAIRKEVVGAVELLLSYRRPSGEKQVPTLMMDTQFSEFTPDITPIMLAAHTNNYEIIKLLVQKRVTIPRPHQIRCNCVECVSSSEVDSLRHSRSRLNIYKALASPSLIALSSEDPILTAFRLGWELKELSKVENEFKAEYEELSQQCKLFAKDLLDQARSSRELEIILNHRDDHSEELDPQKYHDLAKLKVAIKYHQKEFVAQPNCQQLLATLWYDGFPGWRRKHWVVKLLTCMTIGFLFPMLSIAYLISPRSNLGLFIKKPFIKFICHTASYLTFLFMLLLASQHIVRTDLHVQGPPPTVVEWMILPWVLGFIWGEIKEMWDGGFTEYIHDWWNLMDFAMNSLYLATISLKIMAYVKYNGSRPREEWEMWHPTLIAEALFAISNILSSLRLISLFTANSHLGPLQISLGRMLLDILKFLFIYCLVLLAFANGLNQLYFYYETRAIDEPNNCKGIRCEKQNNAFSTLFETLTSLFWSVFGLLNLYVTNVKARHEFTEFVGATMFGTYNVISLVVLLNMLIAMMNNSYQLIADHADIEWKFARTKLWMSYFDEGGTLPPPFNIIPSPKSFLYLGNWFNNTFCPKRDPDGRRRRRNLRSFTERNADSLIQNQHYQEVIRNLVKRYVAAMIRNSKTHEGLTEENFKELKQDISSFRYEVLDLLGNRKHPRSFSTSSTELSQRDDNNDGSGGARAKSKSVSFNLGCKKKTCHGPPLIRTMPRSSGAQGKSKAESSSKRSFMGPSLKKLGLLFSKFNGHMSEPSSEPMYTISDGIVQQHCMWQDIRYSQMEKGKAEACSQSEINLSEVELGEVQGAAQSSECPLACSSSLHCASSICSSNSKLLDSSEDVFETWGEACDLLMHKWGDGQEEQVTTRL

TRPC5 [2] = target: T2, TRPC5 (Homo sapiens, UniProt Q9UL62, V455M); experiment: as above; type: cell-based
T2 construct: TRPC5-SYFP2, wild-type (contains the previously described V455M)
T2 sequence (Q9UL62 1-973 V455M): T1 sequence (Q9UL62 1-973 V455M/Q573T) with T573Q

[3] = target: T3, TRPC5 (human TRPC5:C5 channel) (Homo sapiens, UniProt Q9UL62, V455M); experiment: cryo-EM structure at […] Å; also inhibition of EA-activated channel in HEK […] calcium assay; type: cell-based
T3 construct: MBP-PreS-hTRPC5Δ766–975 (C-terminally truncated), homotetramer
T3 sequence (Q9UL62 1-765 V455M): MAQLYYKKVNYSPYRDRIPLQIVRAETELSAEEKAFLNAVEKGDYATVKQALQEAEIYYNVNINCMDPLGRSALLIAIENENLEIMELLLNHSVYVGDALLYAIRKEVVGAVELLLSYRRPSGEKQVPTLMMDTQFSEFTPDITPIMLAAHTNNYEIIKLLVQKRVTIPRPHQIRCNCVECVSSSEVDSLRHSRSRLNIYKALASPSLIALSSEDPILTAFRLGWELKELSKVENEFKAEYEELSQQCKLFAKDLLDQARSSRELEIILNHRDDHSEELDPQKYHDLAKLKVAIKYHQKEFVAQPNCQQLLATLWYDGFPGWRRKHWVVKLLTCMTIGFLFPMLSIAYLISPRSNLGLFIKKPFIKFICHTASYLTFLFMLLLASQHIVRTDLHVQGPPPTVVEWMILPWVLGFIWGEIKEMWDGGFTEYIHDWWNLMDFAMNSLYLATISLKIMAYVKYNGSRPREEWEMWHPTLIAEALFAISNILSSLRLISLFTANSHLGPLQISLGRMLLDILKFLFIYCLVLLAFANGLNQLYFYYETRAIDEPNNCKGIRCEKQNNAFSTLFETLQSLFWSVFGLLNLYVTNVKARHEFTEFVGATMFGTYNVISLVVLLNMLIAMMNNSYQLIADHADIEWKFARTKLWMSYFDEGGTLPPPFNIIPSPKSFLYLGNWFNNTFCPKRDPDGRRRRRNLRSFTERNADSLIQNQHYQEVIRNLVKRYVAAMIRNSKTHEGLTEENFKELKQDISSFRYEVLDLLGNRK

[4] = target: the molecule itself; experiment: cryo-EM structure; purified TRPC5 in PMAL-C8 at 2 mg/ml with 100 µM Pico145 (also 1 mg/ml with 50 µM Pico145 or 20 µM ZnCl2); C4 symmetry, also refined with C1

Molecule: Cn1c(=O)n(CCCO)c(=O)c2c1nc(Oc1ccc(Cl)c(OC(F)(F)F)c1)n2Cc1ccc(Cl)cc1 [AM237]
EC50 (TRPC5 [1]): 110 nM | EC50 (TRPC5 [2]): 10.6 nM

IC50 [3]: 4 nM
Molecule: Cn1c(=O)n(CCCO)c(=O)c2c1nc(Oc1cccc(OC(F)(F)F)c1)n2Cc1ccc(Cl)cc1 [Pico145]

B1: MBP-PreS-hTRPC5(Δ766–975) (complex, human, UniProt Q9UL62 1-765, looked up)
chain: T3 sequence (Q9UL62 1-765 V455M)
notes: Transient Receptor Potential Canonical 5 (TRPC5), human, C-terminally truncated (Δ766–975), carries V455M from the PCR template TRPC5-SYFP2; A PreScission protease site (PreS) lies between MBP and TRPC5; MBP, PreS and the first 16 residues of TRPC5 were not resolved in the map; Homotetrameric channel in amphipol PMAL-C8; also called human TRPC5; TRPC5:C5 channel; not shown: MBP, N-terminal, kept
stoichiometry N [4]: 4
